In patent EP4603105A1, “PHARMACEUTICAL COMPOSITION CONTAINING CYCLIC COMPOUND HAVING SELECTIVE KRAS INHIBITORY EFFECT AGAINST HRAS AND NRAS” (CHUGAI SEIYAKU KABUSHIKI KAISHA, priority 2022, dated 2024):
Where a SMILES comes first, the peptide text is derived from it. Bridges are numbered along the chain shown (N, C = ends). [ ]: non-standard residue; d: D form. The star is where a group is joined. hPhe(3-Cl-4-CF3) = N[C@@H](CCc1ccc(C(F)(F)F)c(Cl)c1)C(=O)O; NPrPhe(4-CF3) = CCCN[C@@H](Cc1ccc(C(F)(F)F)cc1)C(=O)O; NMeAbu(4,4,4-F3) = CN[C@@H](CC(F)(F)F)C(=O)O; NMeGly(cPent) = CN[C@H](C(=O)O)C1CCCC1; Pro(4,4-F2) = O=C(O)[C@@H]1CC(F)(F)CN1; NMeGly(cBu) = CN[C@H](C(=O)O)C1CCC1; NMeD = CN[C@@H](CC(=O)O)C(=O)O; NMeL = CN[C@@H](CC(C)C)C(=O)O; NMeNva = CCC[C@H](NC)C(=O)O; NMeAbu = CC[C@H](NC)C(=O)O; Morpholide = C1CN(*)CCO1; NMeA = CN[C@@H](C)C(=O)O; Ac5c = NC1(C(=O)O)CCCC1; Aze = O=C(O)[C@@H]1CCN1; Ac4c = NC1(C(=O)O)CCC1; Sar = CNCC(=O)O

Tests used:
[1] = target: GDP-bound NRAS wild-type protein (Homo sapiens, UniProt P01111); assay: Binding to NRAS by surface plasmon resonance (SPR), KD and KD ratio to KRAS; settings: ratio of KD for GDP-bound NRAS wild-type protein to KD for KRAS
Sequence of GDP-bound NRAS wild-type protein (P01111 whole entry): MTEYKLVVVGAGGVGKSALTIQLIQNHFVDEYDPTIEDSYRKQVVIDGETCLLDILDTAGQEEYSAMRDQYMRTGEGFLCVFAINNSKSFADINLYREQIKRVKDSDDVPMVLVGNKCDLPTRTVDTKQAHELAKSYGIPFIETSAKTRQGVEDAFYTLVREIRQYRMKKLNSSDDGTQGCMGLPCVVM
Method in brief: (§1)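 Recombinant RAS proteins bearing a biotinylated Avi tag and loaded with GDP served as the captured ligand, recaptured fresh every cycle. Binding responses were referenced to an uncoated surface and a buffer-only blank cycle. Dissociation constants were obtained by 1:1 model fitting at 30°C.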

[2] = tested on: human lung cancer strain NCI-H441; assay type: cell-based
Method in brief: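 Signal came from […] measured per well once the reagent was added. Beforehand, cells were cultured at 37°C and 5% carbon dioxide on a compound series serially diluted in dimethyl sulfoxide.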

[3] = target: HRAS wild-type protein (Homo sapiens, UniProt P01112); assay: Binding to HRAS by surface plasmon resonance (SPR), KD and KD ratio to KRAS; settings: ratio of KD for HRAS wild-type protein to KD for KRAS
Sequence of HRAS wild-type protein (P01112 whole entry): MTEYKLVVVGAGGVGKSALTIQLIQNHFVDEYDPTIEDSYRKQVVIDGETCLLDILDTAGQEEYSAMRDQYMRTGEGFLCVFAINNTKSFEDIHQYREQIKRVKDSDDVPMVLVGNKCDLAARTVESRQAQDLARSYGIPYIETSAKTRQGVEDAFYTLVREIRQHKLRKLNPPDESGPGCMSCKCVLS
Method in brief: as §1

Row | SMILES | NRAS /KRAS [1] | IC50 [2] | HRAS /KRAS [3]
1 | CCCN1C(=O)CN(C)C(=O)CN(C)C(=O)[C@H]([C@@H](C)CC)NC(=O)[C@H](C2CCC2)N(C)C(=O)C[C@@H](C(=O)N2CCOCC2)N(C)C(=O)[C@H](C2CCCC2)N(C)C(=O)C2(CCCC2)NC(=O)[C@@H]2CCCN2C(=O)[C@H](CCc2ccc(C(F)(F)F)c(Cl)c2)NC(=O)CN(C)C(=O)[C@@H]1Cc1ccc(C(F)(F)F)cc1 [PP0188] ([NMeGly(cBu)]I[Sar][Sar][NPrPhe(4-CF3)][Sar][hPhe(3-Cl-4-CF3)]P[Ac5c][NMeGly(cPent)][NMeD]-Morpholide; lactam N-11) | B (a compound having 3 or more and less than 10 is denoted as B) | 3.9 nM | C (A compound having a KD ratio of 0.1 or more and less than 3 is denoted as C)
2 | CCC[C@H]1C(=O)N[C@@H]([C@@H](C)CC)C(=O)N(C)CC(=O)N(C)CC(=O)N(CCC)[C@@H](Cc2ccc(C(F)(F)F)cc2)C(=O)N(C)CC(=O)N[C@@H](CCc2ccc(C(F)(F)F)c(Cl)c2)C(=O)N2CCC[C@H]2C(=O)NC2(CCCC2)C(=O)N(C)[C@@H](C2CCCC2)C(=O)N(C)[C@H](C(=O)N2CCOCC2)CC(=O)N1C [PP0189] ([NMeNva]I[Sar][Sar][NPrPhe(4-CF3)][Sar][hPhe(3-Cl-4-CF3)]P[Ac5c][NMeGly(cPent)][NMeD]-Morpholide; lactam N-11) | B (a compound having 3 or more and less than 10 is denoted as B) | 3 nM | C (A compound having a KD ratio of 0.1 or more and less than 3 is denoted as C)
3 | CCCN1C(=O)CN(C)C(=O)CN(C)C(=O)[C@H]([C@@H](C)CC)NC(=O)[C@H](CC)N(C)C(=O)C[C@@H](C(=O)N2CCOCC2)N(C)C(=O)[C@H](C2CCCC2)N(C)C(=O)C2(CCCC2)NC(=O)[C@@H]2CCCN2C(=O)[C@H](CCc2ccc(C(F)(F)F)c(Cl)c2)NC(=O)CN(C)C(=O)[C@@H]1Cc1ccc(C(F)(F)F)cc1 [PP0190] ([NMeAbu]I[Sar][Sar][NPrPhe(4-CF3)][Sar][hPhe(3-Cl-4-CF3)]P[Ac5c][NMeGly(cPent)][NMeD]-Morpholide; lactam N-11) | B (a compound having 3 or more and less than 10 is denoted as B) | 4.1 nM | B (a compound having 3 or more and less than 10 is denoted as B)
4 | CCCN1C(=O)[C@@H]2CCN2C(=O)[C@H](C)N(C)C(=O)[C@H]([C@@H](C)CC)NC(=O)[C@H](CC(F)(F)F)N(C)C(=O)C[C@@H](C(=O)N2CCOCC2)N(C)C(=O)[C@H](C2CCCC2)N(C)C(=O)C2(CCCC2)NC(=O)[C@@H]2CCCN2C(=O)[C@H](CCc2ccc(C(F)(F)F)c(Cl)c2)NC(=O)CN(C)C(=O)[C@@H]1Cc1ccc(C(F)(F)F)cc1 [PP0191] ([NMeAbu(4,4,4-F3)]I[NMeA][Aze][NPrPhe(4-CF3)][Sar][hPhe(3-Cl-4-CF3)]P[Ac5c][NMeGly(cPent)][NMeD]-Morpholide; lactam N-11) | C (A compound having a KD ratio of 0.1 or more and less than 3 is denoted as C) | 3.9 nM | B (a compound having 3 or more and less than 10 is denoted as B)
5 | CCCN1C(=O)[C@@H]2CCN2C(=O)[C@H](C)N(C)C(=O)[C@H]([C@@H](C)CC)NC(=O)[C@H](C2CCC2)N(C)C(=O)C[C@@H](C(=O)N2CCOCC2)N(C)C(=O)[C@H](C2CCCC2)N(C)C(=O)C2(CCCC2)NC(=O)[C@@H]2CCCN2C(=O)[C@H](CCc2ccc(C(F)(F)F)c(Cl)c2)NC(=O)CN(C)C(=O)[C@@H]1Cc1ccc(C(F)(F)F)cc1 [PP0192] ([NMeGly(cBu)]I[NMeA][Aze][NPrPhe(4-CF3)][Sar][hPhe(3-Cl-4-CF3)]P[Ac5c][NMeGly(cPent)][NMeD]-Morpholide; lactam N-11) | C (A compound having a KD ratio of 0.1 or more and less than 3 is denoted as C) | 2.6 nM | B (a compound having 3 or more and less than 10 is denoted as B)
6 | CCC[C@H]1C(=O)N[C@@H]([C@@H](C)CC)C(=O)N(C)[C@@H](C)C(=O)N2CC[C@H]2C(=O)N(CCC)[C@@H](Cc2ccc(C(F)(F)F)cc2)C(=O)N(C)CC(=O)N[C@@H](CCc2ccc(C(F)(F)F)c(Cl)c2)C(=O)N2CCC[C@H]2C(=O)NC2(CCCC2)C(=O)N(C)[C@@H](C2CCCC2)C(=O)N(C)[C@H](C(=O)N2CCOCC2)CC(=O)N1C [PP0193] ([NMeNva]I[NMeA][Aze][NPrPhe(4-CF3)][Sar][hPhe(3-Cl-4-CF3)]P[Ac5c][NMeGly(cPent)][NMeD]-Morpholide; lactam N-11) | C (A compound having a KD ratio of 0.1 or more and less than 3 is denoted as C) | 1.4 nM | C (A compound having a KD ratio of 0.1 or more and less than 3 is denoted as C)
7 | CCCN1C(=O)[C@@H]2CCN2C(=O)[C@H](C)N(C)C(=O)[C@H]([C@@H](C)CC)NC(=O)[C@H](CC)N(C)C(=O)C[C@@H](C(=O)N2CCOCC2)N(C)C(=O)[C@H](C2CCCC2)N(C)C(=O)C2(CCCC2)NC(=O)[C@@H]2CCCN2C(=O)[C@H](CCc2ccc(C(F)(F)F)c(Cl)c2)NC(=O)CN(C)C(=O)[C@@H]1Cc1ccc(C(F)(F)F)cc1 [PP0194] ([NMeAbu]I[NMeA][Aze][NPrPhe(4-CF3)][Sar][hPhe(3-Cl-4-CF3)]P[Ac5c][NMeGly(cPent)][NMeD]-Morpholide; lactam N-11) | C (A compound having a KD ratio of 0.1 or more and less than 3 is denoted as C) | 1.9 nM | B (a compound having 3 or more and less than 10 is denoted as B)
8 | CCCN1C(=O)CN(C)C(=O)CN(C)C(=O)[C@H]([C@@H](C)CC)NC(=O)[C@H](CC(C)C)N(C)C(=O)C[C@@H](C(=O)N2CCOCC2)N(C)C(=O)[C@H](C2CCCC2)N(C)C(=O)C2(CCCC2)NC(=O)[C@@H]2CC(F)(F)CN2C(=O)[C@H](CCc2ccc(C(F)(F)F)c(Cl)c2)NC(=O)CN(C)C(=O)[C@@H]1Cc1ccc(C(F)(F)F)cc1 [PP0195] ([NMeL]I[Sar][Sar][NPrPhe(4-CF3)][Sar][hPhe(3-Cl-4-CF3)][Pro(4,4-F2)][Ac5c][NMeGly(cPent)][NMeD]-Morpholide; lactam N-11) | B (a compound having 3 or more and less than 10 is denoted as B) | 2.7 nM | C (A compound having a KD ratio of 0.1 or more and less than 3 is denoted as C)
9 | CCCN1C(=O)[C@@H]2CCN2C(=O)[C@H](C)N(C)C(=O)[C@H]([C@@H](C)CC)NC(=O)[C@H](CC(C)C)N(C)C(=O)C[C@@H](C(=O)N2CCOCC2)N(C)C(=O)[C@H](C2CCCC2)N(C)C(=O)C2(CCCC2)NC(=O)[C@@H]2CC(F)(F)CN2C(=O)[C@H](CCc2ccc(C(F)(F)F)c(Cl)c2)NC(=O)CN(C)C(=O)[C@@H]1Cc1ccc(C(F)(F)F)cc1 [PP0196] ([NMeL]I[NMeA][Aze][NPrPhe(4-CF3)][Sar][hPhe(3-Cl-4-CF3)][Pro(4,4-F2)][Ac5c][NMeGly(cPent)][NMeD]-Morpholide; lactam N-11) | C (A compound having a KD ratio of 0.1 or more and less than 3 is denoted as C) | 3.7 nM | C (A compound having a KD ratio of 0.1 or more and less than 3 is denoted as C)
10 | CCCN1C(=O)CN(C)C(=O)CN(C)C(=O)[C@H]([C@@H](C)CC)NC(=O)[C@H](CC(C)C)N(C)C(=O)C[C@@H](C(=O)N2CCOCC2)N(C)C(=O)[C@H](C2CCCC2)N(C)C(=O)C2(CCC2)NC(=O)[C@@H]2CCCN2C(=O)[C@H](CCc2ccc(C(F)(F)F)c(Cl)c2)NC(=O)CN(C)C(=O)[C@@H]1Cc1ccc(C(F)(F)F)cc1 [PP0197] ([NMeL]I[Sar][Sar][NPrPhe(4-CF3)][Sar][hPhe(3-Cl-4-CF3)]P[Ac4c][NMeGly(cPent)][NMeD]-Morpholide; lactam N-11) | B (a compound having 3 or more and less than 10 is denoted as B) | 3.6 nM | C (A compound having a KD ratio of 0.1 or more and less than 3 is denoted as C)
11 | CCCN1C(=O)[C@@H]2CCN2C(=O)[C@H](C)N(C)C(=O)[C@H]([C@@H](C)CC)NC(=O)[C@H](CC(C)C)N(C)C(=O)C[C@@H](C(=O)N2CCOCC2)N(C)C(=O)[C@H](C2CCCC2)N(C)C(=O)C2(CCC2)NC(=O)[C@@H]2CCCN2C(=O)[C@H](CCc2ccc(C(F)(F)F)c(Cl)c2)NC(=O)CN(C)C(=O)[C@@H]1Cc1ccc(C(F)(F)F)cc1 [PP0198] ([NMeL]I[NMeA][Aze][NPrPhe(4-CF3)][Sar][hPhe(3-Cl-4-CF3)]P[Ac4c][NMeGly(cPent)][NMeD]-Morpholide; lactam N-11) | C (A compound having a KD ratio of 0.1 or more and less than 3 is denoted as C) | 5.7 nM | B (a compound having 3 or more and less than 10 is denoted as B)
12 | CCCN1C(=O)CN(C)C(=O)CN(C)C(=O)[C@H]([C@@H](C)CC)NC(=O)[C@H](CC(F)(F)F)N(C)C(=O)C[C@@H](C(=O)N2CCOCC2)N(C)C(=O)[C@H](C2CCCC2)N(C)C(=O)C2(CCCC2)NC(=O)[C@@H]2CC(F)(F)CN2C(=O)[C@H](CCc2ccc(C(F)(F)F)c(Cl)c2)NC(=O)CN(C)C(=O)[C@@H]1Cc1ccc(C(F)(F)F)cc1 [PP0199] ([NMeAbu(4,4,4-F3)]I[Sar][Sar][NPrPhe(4-CF3)][Sar][hPhe(3-Cl-4-CF3)][Pro(4,4-F2)][Ac5c][NMeGly(cPent)][NMeD]-Morpholide; lactam N-11) | B (a compound having 3 or more and less than 10 is denoted as B) | 3.5 nM | C (A compound having a KD ratio of 0.1 or more and less than 3 is denoted as C)
